Read-outs that look alike come from different tables or passages of the source. Values belong to the compound of their own block, whether it stands above or below them.
Tests used:
Assay in all cases: biochemical
Design in all cases: species or system human cell line lysate
[1] = target: Atypical kinase COQ8A, mitochondrial ; COQ8A ; Q8NI60 (Homo sapiens, UniProt Q8NI60)
[2] = target: Deoxycytidine kinase ; DCK ; P27707 (Homo sapiens, UniProt P27707)
[3] = target: Dual specificity protein kinase TTK ; TTK ; P33981 (Homo sapiens, UniProt P33981)
[4] = target: Isoform 2 of 5'-AMP-activated protein kinase catalytic subunit alpha-1 ; PRKAA1 ; Q13131-2 (Homo sapiens, UniProt Q13131)
[5] = target: Isoform 3 of Serine/threonine-protein kinase MARK1 ; MARK1 ; Q9P0L2-3 (Homo sapiens, UniProt Q9P0L2)
[6] = target: Ketosamine-3-kinase ; FN3KRP ; Q9HA64 (Homo sapiens, UniProt Q9HA64)
[7] = target: Misshapen-like kinase 1 ; MINK1 ; Q8N4C8 (Homo sapiens, UniProt Q8N4C8)
[8] = target: Mitogen-activated protein kinase 1 ; MAPK1 ; P28482 (Homo sapiens, UniProt P28482)
[9] = target: Mitogen-activated protein kinase 9 ; MAPK9 ; P45984 (Homo sapiens, UniProt P45984)
[10] = target: Mitogen-activated protein kinase kinase kinase 11 ; MAP3K11 ; Q16584 (Homo sapiens, UniProt Q16584)
[11] = target: Ribosomal protein S6 kinase alpha-5 ; RPS6KA5 ; O75582 (Homo sapiens, UniProt O75582)
[12] = target: Serine/threonine-protein kinase BRSK1 ; BRSK1 ; Q8TDC3 (Homo sapiens, UniProt Q8TDC3)
[13] = target: Serine/threonine-protein kinase BRSK2 ; BRSK2 ; Q8IWQ3 (Homo sapiens, UniProt Q8IWQ3)
[14] = target: Serine/threonine-protein kinase MRCK beta ; CDC42BPB ; Q9Y5S2 (Homo sapiens, UniProt Q9Y5S2)
[15] = target: Serine/threonine-protein kinase Nek9 ; NEK9 ; Q8TD19 (Homo sapiens, UniProt Q8TD19)
[16] = target: Serine/threonine-protein kinase TAO2 ; TAOK2 ; Q9UL54 (Homo sapiens, UniProt Q9UL54)
[17] = target: Serine/threonine-protein kinase ULK2 ; ULK2 ; Q8IYT8 (Homo sapiens, UniProt Q8IYT8)
[18] = target: Tyrosine-protein kinase HCK ; HCK ; P08631 (Homo sapiens, UniProt P08631)
[19] = target: T1, Tyrosine-protein kinase Tec ; TEC ; P42680 (Homo sapiens, UniProt P42680)
T1 sequence (P42680 1-631): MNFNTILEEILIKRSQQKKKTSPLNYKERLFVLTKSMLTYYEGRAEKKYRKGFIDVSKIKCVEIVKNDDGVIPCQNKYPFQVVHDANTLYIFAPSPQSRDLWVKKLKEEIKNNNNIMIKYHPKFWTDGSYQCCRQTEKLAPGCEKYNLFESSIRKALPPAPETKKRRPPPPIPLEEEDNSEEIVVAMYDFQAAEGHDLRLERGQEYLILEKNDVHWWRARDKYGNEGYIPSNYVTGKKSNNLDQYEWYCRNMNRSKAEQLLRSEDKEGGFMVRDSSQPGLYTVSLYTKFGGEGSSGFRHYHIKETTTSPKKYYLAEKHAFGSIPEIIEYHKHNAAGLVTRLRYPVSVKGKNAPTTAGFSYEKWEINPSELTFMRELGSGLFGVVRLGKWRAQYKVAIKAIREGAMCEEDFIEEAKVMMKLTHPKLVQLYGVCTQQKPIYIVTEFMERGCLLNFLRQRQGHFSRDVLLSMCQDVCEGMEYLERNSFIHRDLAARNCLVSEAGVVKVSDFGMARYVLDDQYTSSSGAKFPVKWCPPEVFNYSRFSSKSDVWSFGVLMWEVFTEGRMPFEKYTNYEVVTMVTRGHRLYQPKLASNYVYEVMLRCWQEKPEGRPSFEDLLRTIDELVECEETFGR

[20] = read-out: BAY-1251152 (10 µM) / %Intensity relative to DMSO
[21] = read-out: BAY-1143572 (10 µM) / %Intensity relative to DMSO

Chain of Mitogen-activated protein kinase 9 ; MAPK9 ; P45984 (P45984 whole entry): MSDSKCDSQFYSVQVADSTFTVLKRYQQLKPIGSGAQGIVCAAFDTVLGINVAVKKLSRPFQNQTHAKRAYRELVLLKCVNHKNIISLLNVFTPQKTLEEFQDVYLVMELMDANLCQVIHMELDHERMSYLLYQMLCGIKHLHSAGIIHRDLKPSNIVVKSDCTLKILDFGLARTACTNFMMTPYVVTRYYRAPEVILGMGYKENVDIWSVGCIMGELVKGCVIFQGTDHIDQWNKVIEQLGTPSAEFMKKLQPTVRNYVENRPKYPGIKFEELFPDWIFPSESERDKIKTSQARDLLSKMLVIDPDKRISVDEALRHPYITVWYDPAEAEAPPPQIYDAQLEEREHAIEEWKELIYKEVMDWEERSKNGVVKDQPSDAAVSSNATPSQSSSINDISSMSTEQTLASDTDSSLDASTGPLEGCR
Chain of Serine/threonine-protein kinase BRSK2 ; BRSK2 ; Q8IWQ3 (Q8IWQ3 whole entry, one chain of several): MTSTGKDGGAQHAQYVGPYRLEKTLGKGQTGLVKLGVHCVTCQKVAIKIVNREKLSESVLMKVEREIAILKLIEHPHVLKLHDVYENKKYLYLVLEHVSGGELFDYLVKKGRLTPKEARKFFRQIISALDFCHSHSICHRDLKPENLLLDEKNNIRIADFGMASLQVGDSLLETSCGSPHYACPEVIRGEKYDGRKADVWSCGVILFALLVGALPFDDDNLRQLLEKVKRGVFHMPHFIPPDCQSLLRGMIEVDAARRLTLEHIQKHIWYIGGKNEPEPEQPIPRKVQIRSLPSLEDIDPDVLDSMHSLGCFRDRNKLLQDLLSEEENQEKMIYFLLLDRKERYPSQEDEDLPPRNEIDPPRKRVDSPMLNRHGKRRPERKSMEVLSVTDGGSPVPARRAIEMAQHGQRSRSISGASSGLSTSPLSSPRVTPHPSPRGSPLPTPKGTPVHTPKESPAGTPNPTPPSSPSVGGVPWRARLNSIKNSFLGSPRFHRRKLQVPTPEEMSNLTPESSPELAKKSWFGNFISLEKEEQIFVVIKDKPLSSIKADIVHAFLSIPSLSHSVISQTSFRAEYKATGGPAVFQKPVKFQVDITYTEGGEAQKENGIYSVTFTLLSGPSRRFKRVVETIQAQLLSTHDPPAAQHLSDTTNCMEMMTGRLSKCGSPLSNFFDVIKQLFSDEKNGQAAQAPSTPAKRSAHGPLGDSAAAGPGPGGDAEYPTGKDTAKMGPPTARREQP
Chain of Serine/threonine-protein kinase BRSK1 ; BRSK1 ; Q8TDC3 (Q8TDC3 whole entry, one chain of several): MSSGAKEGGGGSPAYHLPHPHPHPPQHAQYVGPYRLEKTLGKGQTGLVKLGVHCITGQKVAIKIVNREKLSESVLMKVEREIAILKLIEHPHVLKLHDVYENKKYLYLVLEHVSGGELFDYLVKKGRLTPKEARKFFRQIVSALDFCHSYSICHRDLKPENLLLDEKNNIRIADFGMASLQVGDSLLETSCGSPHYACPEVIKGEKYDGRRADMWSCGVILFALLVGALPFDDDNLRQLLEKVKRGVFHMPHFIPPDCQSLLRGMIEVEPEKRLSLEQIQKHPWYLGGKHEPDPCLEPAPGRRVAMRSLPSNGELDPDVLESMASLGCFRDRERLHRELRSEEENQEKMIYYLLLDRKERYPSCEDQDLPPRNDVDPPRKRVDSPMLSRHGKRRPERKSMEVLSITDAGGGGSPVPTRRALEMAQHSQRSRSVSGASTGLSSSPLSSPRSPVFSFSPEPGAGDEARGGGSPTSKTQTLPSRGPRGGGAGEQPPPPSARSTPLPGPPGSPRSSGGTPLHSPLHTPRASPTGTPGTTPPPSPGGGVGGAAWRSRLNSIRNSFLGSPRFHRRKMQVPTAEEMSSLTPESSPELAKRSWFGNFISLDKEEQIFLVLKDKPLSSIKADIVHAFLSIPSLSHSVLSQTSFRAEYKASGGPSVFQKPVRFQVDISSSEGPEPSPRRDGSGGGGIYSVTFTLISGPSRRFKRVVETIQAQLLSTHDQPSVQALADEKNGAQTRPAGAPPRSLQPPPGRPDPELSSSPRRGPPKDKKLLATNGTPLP
Chain of Atypical kinase COQ8A, mitochondrial ; COQ8A ; Q8NI60 (Q8NI60 whole entry): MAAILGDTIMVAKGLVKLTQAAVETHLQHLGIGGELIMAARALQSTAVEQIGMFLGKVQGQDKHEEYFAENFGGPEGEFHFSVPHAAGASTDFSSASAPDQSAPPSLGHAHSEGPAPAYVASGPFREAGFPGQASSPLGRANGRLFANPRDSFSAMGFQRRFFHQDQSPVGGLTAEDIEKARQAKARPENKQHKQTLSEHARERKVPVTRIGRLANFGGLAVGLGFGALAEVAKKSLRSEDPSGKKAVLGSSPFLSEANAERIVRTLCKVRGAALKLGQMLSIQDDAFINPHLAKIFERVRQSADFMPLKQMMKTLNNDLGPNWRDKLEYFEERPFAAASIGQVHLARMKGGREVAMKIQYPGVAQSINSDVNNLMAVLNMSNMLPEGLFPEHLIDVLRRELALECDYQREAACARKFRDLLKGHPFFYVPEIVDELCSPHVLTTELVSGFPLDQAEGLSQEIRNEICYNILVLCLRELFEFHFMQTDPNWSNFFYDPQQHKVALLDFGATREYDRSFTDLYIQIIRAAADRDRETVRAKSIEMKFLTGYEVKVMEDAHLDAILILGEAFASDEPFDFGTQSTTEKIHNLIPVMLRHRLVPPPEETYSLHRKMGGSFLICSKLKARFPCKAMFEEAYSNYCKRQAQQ
Chain of Serine/threonine-protein kinase TAO2 ; TAOK2 ; Q9UL54 (Q9UL54 whole entry, one chain of several): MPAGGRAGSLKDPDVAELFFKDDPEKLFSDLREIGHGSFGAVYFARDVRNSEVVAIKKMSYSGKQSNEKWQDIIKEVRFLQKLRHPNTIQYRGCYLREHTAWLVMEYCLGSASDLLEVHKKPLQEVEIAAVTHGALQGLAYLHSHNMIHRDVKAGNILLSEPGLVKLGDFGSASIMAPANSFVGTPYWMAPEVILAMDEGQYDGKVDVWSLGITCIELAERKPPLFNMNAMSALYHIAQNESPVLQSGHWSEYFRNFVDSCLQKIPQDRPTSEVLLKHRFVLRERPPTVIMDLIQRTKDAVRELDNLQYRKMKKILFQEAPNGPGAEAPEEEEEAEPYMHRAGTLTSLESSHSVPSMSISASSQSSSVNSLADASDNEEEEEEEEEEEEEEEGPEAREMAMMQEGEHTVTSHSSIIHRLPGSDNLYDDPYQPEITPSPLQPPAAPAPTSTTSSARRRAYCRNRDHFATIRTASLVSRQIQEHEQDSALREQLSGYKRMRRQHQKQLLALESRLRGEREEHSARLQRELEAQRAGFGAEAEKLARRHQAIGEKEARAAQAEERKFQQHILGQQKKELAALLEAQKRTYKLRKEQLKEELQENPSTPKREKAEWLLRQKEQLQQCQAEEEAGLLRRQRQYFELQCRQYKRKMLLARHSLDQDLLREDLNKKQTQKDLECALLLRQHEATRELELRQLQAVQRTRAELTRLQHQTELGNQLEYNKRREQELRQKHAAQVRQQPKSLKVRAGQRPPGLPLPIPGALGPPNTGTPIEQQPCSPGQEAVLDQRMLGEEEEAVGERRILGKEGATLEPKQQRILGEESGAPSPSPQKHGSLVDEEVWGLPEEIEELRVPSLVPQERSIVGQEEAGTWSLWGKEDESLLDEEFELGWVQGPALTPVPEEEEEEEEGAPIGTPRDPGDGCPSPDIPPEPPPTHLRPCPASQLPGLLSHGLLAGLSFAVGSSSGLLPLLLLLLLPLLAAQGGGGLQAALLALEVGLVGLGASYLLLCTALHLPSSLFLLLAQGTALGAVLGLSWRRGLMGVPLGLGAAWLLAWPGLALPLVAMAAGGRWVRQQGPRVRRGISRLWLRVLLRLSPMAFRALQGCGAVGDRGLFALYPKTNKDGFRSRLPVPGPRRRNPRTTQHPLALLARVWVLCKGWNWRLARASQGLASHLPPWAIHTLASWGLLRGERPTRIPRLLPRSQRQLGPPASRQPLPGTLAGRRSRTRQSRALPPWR
Chain of Tyrosine-protein kinase HCK ; HCK ; P08631 (P08631 whole entry): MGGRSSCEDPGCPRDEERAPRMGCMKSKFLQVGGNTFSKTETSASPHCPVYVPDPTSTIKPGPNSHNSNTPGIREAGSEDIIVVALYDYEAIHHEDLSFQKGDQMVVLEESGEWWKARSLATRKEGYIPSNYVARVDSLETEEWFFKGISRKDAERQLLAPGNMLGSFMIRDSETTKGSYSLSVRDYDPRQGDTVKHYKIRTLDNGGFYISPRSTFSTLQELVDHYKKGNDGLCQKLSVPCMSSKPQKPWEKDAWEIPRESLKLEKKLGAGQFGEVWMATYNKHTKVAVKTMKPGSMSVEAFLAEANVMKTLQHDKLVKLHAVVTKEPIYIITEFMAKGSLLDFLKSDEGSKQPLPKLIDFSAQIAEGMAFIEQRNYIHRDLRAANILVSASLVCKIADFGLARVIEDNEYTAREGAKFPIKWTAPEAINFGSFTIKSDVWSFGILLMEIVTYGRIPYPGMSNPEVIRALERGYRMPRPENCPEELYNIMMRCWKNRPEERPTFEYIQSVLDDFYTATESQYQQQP
Chain of Mitogen-activated protein kinase 1 ; MAPK1 ; P28482 (P28482 whole entry): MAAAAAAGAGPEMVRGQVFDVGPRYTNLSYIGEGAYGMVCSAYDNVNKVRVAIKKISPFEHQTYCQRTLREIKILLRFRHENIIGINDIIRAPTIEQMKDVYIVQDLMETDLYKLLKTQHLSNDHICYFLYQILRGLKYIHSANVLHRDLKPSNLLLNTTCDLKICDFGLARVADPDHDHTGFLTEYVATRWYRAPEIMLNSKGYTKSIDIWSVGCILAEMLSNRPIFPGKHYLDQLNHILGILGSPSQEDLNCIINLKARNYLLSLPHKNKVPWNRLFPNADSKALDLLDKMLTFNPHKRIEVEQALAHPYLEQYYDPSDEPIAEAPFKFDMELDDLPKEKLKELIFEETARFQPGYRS
Chain of Ketosamine-3-kinase ; FN3KRP ; Q9HA64 (Q9HA64 whole entry): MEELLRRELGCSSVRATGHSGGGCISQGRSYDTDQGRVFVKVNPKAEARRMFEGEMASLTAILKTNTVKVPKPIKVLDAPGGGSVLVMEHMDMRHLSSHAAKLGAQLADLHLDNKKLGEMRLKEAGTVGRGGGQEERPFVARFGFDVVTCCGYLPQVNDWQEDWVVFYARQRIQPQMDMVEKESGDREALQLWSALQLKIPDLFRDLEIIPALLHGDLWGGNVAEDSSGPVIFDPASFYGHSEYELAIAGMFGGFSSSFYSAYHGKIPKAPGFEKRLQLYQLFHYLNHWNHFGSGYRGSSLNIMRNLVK

- remaining activity at 10 µM [1, 20]: 113%
- remaining activity at 10 µM [2, 20]: 108%
- remaining activity at 10 µM [3, 20]: 82.1%
- remaining activity at 10 µM [4, 20]: 103%
- remaining activity at 10 µM [5, 20]: 84.7%
- remaining activity at 10 µM [6, 20]: 114%
- remaining activity at 10 µM [7, 20]: 54.1%
- remaining activity at 10 µM [8, 20]: 105%
- remaining activity at 10 µM [9, 20]: 142%
- remaining activity at 10 µM [10, 20]: 81%
- remaining activity at 10 µM [11, 20]: 110%
- remaining activity at 10 µM [12, 20]: 96%
- remaining activity at 10 µM [13, 20]: 114%
- remaining activity at 10 µM [14, 20]: 101%
- remaining activity at 10 µM [16, 20]: 56%
- remaining activity at 10 µM [17, 20]: 104%
- remaining activity at 10 µM [18, 20]: 107%
- remaining activity at 10 µM [19, 20]: 104%
Compound: COc1cc(F)ccc1-c1cc(Nc2cc(CS(C)(=N)=O)ccn2)ncc1F (centres unmarked) [BAY-1251152]
- remaining activity at 10 µM [15, 20]: 110%

- remaining activity at 10 µM [1, 21]: 106%
- remaining activity at 10 µM [2, 21]: 121%
- remaining activity at 10 µM [3, 21]: 86.7%
- remaining activity at 10 µM [4, 21]: 99.5%
- remaining activity at 10 µM [5, 21]: 80.9%
- remaining activity at 10 µM [6, 21]: 117%
- remaining activity at 10 µM [7, 21]: 72.9%
- remaining activity at 10 µM [8, 21]: 112%
- remaining activity at 10 µM [9, 21]: 178%
- remaining activity at 10 µM [10, 21]: 105%
- remaining activity at 10 µM [11, 21]: 109%
- remaining activity at 10 µM [12, 21]: 95.3%
- remaining activity at 10 µM [13, 21]: 104%
- remaining activity at 10 µM [14, 21]: 102%
- remaining activity at 10 µM [16, 21]: 80.7%
- remaining activity at 10 µM [17, 21]: 92.9%
- remaining activity at 10 µM [18, 21]: 108%
- remaining activity at 10 µM [19, 21]: 89.2%
Compound: COc1cc(F)ccc1-c1ncnc(Nc2cccc(C[S@](C)(=N)=O)c2)n1 [BAY-1143572]
- remaining activity at 10 µM [15, 21]: 110%

Reference: doi:10.1101/2024.08.13.607785v1 (biorxiv, 2024)
